Common to all, as to format: in vivo
For test [1], the system named is Pseudoperonospora cubensis. The test is described as follows: Controlling effect on Pseudoperonospora cubensis by foliage application (pot experiment). Particulars: foliage spray on cucumber (var. TSUKUBASHIROIBO) first leaves, lesion area after 10 days in moist chamber at 20° C. As to the method:
The following Test Examples illustrate the effects of the fungicide of the present invention. (I. Controlling effects on various plant diseases by foliage application (pot experiment)) A test compound was dissolved in a small amount of N,N-dimethylformamide, and the solution was diluted to a given concentration with distilled water containing a spreader. Thus, a liquid sample to be tested was prepared. The liquid sample was sprayed to test plants, and 24 hours thereafter, pathogens were inoculated by the method described below. […] The seeds of cucumber (var.: […]) were sown in plastic cups (each 9 cm in diameter), followed by cultivation for 2 to 3 weeks. The test compound in the form of a solution or suspension was sprayed to the surface of their first leaves, and a zoosporangia suspension of Pseudoperonospora cubensis cultured on cucumber leaves was dropped on the above leaf surfaces to inoculate the test plants with the pathogen. After the inoculation, the plants were kept in a moist chamber at 20° C. for 10 days. Then, the area of the lesions around the inoculum were observed and the percent control was calculated.

A further test relates to Pyricularia oryzae. Particulars: foliage spray on rice seedlings (cv. […]), number of lesions six days after the inoculation.
Another test has as its system Sphaerotheca fuliginea. The test is described as follows: Controlling effect on Sphaerotheca fuliginea by foliage application (pot experiment). Particulars: foliage spray on cucumber (cv. TSUKUBASHIROIBO) first leaves, infected area after 10 days in greenhouse at 20° C.; for pest or weed control at 500 ppm: Podosphaera fuliginea, in Cucumis sativus, foliar, 240 h, read-out: Controlling effect on Sphaerotheca fuliginea by foliage application at 500 ppm (percent control). Summed up: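 First leaves of cucumber seedlings, 2-3 weeks old, were sprayed with compound (DMF solution diluted in water with spreader). They were inoculated 24 h later with a Sphaerotheca fuliginea conidia spray and kept 10 days at 20° C in a greenhouse. Percent control was calculated from infected leaf area.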

For test [2], the system named is Erysiphe graminis f. sp. tritici. Briefly: Controlling effect on Erysiphe graminis f. sp. tritici by foliage application (pot experiment). Particulars: foliage spray on wheat (cv. NORIN No. 61) seedlings, infected area after 10 days in greenhouse at 20° C.; for pest or weed control at 500 ppm: Blumeria graminis, foliar, 240 h, read-out: Controlling effect on ErYsiphe graminis f. sp. tritici by foliage application at 500 ppm (percent control). The essentials:
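Wheat seedlings (cv. NORIN No. 61, 2-3 weeks old) sprayed with compound in DMF diluted in water with spreader, then inoculated with conidia 24 hours later. Kept in greenhouse at 20 °C for 10 days; percent control calculated from infected leaf area.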

Each structure is given as a SMILES string.

With `CON=C(c1ccccc1COc1cccc(C(C)C)c1)c1nccn1C` (single isomer, unassigned) [146A], the “Controlling effect on Pseudoperonospora cubensis by foliage application at 500 ppm (percent control)” value in test [1] is listed as 100 percent control. Also, the “Controlling effect on PYricularia orYzae by foliage application at 500 ppm (percent control)” value in the test on Pyricularia oryzae came to 97 percent control. Moreover, the “Controlling effect on Sphaerotheca fuliginea by foliage application at 500 ppm (percent control)” value in the test with Sphaerotheca fuliginea is given as 97 percent control.
Regarding `CON=C(c1nnco1)c1ccccc1COc1ccccc1Cl` [compound 705], the “Controlling effect on Pseudoperonospora cubensis by foliage application at 500 ppm (percent control)” value in test [1] was found to be 100 percent control. Moreover, the “Controlling effect on PYricularia orYzae by foliage application at 500 ppm (percent control)” value in the test on Pyricularia oryzae stood at 70 percent control. Moreover, the “Controlling effect on Sphaerotheca fuliginea by foliage application at 500 ppm (percent control)” value in the test on Sphaerotheca fuliginea was 97 percent control.
Regarding `CON=C(c1ccccc1COc1ccccc1Cl)c1nccn1C` (single isomer, unassigned) [105A], the “Controlling effect on Pseudoperonospora cubensis by foliage application at 500 ppm (percent control)” value in test [1] is listed as 100 percent control. In the test with Pyricularia oryzae, the “Controlling effect on PYricularia orYzae by foliage application at 500 ppm (percent control)” value is given as 97 percent control. Further, the “Controlling effect on ErYsiphe graminis f. sp. tritici by foliage application at 500 ppm (percent control)” value in test [2] stood at 70 percent control. Moreover, the “Controlling effect on Sphaerotheca fuliginea by foliage application at 500 ppm (percent control)” value in the test with Sphaerotheca fuliginea was 100 percent control.
As for `CON=C(c1ccon1)c1ccccc1COc1ccccc1Cl` (mixture of isomers) [compound 305], the “Controlling effect on Pseudoperonospora cubensis by foliage application at 500 ppm (percent control)” value in test [1] is recorded as 100 percent control. In the test with Pyricularia oryzae, the “Controlling effect on PYricularia orYzae by foliage application at 500 ppm (percent control)” value is listed as 70 percent control. Also, the “Controlling effect on ErYsiphe graminis f. sp. tritici by foliage application at 500 ppm (percent control)” value in test [2] was 90 percent control. The “Controlling effect on Sphaerotheca fuliginea by foliage application at 500 ppm (percent control)” value with Sphaerotheca fuliginea was 100 percent control.
Consider `CON=C(c1ccccc1ON=C(C)c1cccc(C(F)(F)F)c1)C1NCCS1` (stereo not drawn) [Compound No. 2799, 2-[(α-methyl-3-trifluoromethylbenzylidene)aminooxy]phenyl thiazolidin-2-yl ketone O-methyloxime], for which the “Controlling effect on Pseudoperonospora cubensis by foliage application at 500 ppm (percent control)” value in test [1] is listed as 95 percent control. The “Controlling effect on PYricularia orYzae by foliage application at 500 ppm (percent control)” value in the test on Pyricularia oryzae is given as 100 percent control. For the same molecule, the pest or weed control at 500 ppm in test [2] came out at 97%; in the test with Sphaerotheca fuliginea, 100%.
As to `CON=C(c1cc(C)no1)c1ccccc1COc1cccc(C)c1` (single isomer, unassigned) [613A], in test [1], the “Controlling effect on Pseudoperonospora cubensis by foliage application at 500 ppm (percent control)” value turned out to be 70 percent control. Also, the “Controlling effect on PYricularia orYzae by foliage application at 500 ppm (percent control)” value in the test with Pyricularia oryzae is 70 percent control. The “Controlling effect on ErYsiphe graminis f. sp. tritici by foliage application at 500 ppm (percent control)” value in test [2] is listed as 90 percent control. In the test with Sphaerotheca fuliginea, the “Controlling effect on Sphaerotheca fuliginea by foliage application at 500 ppm (percent control)” value was 100 percent control.
As for `CON=C(c1cc(C)no1)c1ccccc1COc1ccc(Cl)cc1C` (single isomer, unassigned) [641A], the “Controlling effect on Pseudoperonospora cubensis by foliage application at 500 ppm (percent control)” value in test [1] came to 100 percent control. In addition, the “Controlling effect on PYricularia orYzae by foliage application at 500 ppm (percent control)” value in the test on Pyricularia oryzae is listed as 70 percent control. For the same molecule, the “Controlling effect on ErYsiphe graminis f. sp. tritici by foliage application at 500 ppm (percent control)” value in test [2] turned out to be 90 percent control. Also, the “Controlling effect on Sphaerotheca fuliginea by foliage application at 500 ppm (percent control)” value in the test with Sphaerotheca fuliginea worked out at 100 percent control.
`CON=C(c1ccno1)c1ccccc1COc1ccc(Cl)cc1C` (single isomer, unassigned) [541B]: the “Controlling effect on Pseudoperonospora cubensis by foliage application at 500 ppm (percent control)” value in test [1] came out at 100 percent control. Also, in the test with Pyricularia oryzae, the “Controlling effect on PYricularia orYzae by foliage application at 500 ppm (percent control)” value is reported as 70 percent control. The “Controlling effect on ErYsiphe graminis f. sp. tritici by foliage application at 500 ppm (percent control)” value in test [2] came out at 90 percent control. Besides, the “Controlling effect on Sphaerotheca fuliginea by foliage application at 500 ppm (percent control)” value in the test with Sphaerotheca fuliginea is recorded as 100 percent control.
Regarding `CCc1cccc(OCc2ccccc2C(=NOC)c2nnco2)c1` [compound 716], in test [1], the “Controlling effect on Pseudoperonospora cubensis by foliage application at 500 ppm (percent control)” value is given as 100 percent control. In addition, the “Controlling effect on PYricularia orYzae by foliage application at 500 ppm (percent control)” value in the test on Pyricularia oryzae worked out at 70 percent control. Further, in test [2], the “Controlling effect on ErYsiphe graminis f. sp. tritici by foliage application at 500 ppm (percent control)” value came to 70 percent control. Moreover, the “Controlling effect on Sphaerotheca fuliginea by foliage application at 500 ppm (percent control)” value with Sphaerotheca fuliginea worked out at 100 percent control.
With `CON=C(c1ccccc1COc1cccc(C)c1)c1nccn1C` (single isomer, unassigned) [113A], the “Controlling effect on Pseudoperonospora cubensis by foliage application at 500 ppm (percent control)” value in test [1] was 100 percent control. Further, in the test with Pyricularia oryzae, the “Controlling effect on PYricularia orYzae by foliage application at 500 ppm (percent control)” value was 97 percent control. Besides, in test [2], the “Controlling effect on ErYsiphe graminis f. sp. tritici by foliage application at 500 ppm (percent control)” value is reported as 90 percent control. The “Controlling effect on Sphaerotheca fuliginea by foliage application at 500 ppm (percent control)” value with Sphaerotheca fuliginea was found to be 100 percent control.
Consider `CON=C(c1ccon1)c1ccccc1COc1cccc(C)c1` (mixture of isomers) [compound 313], for which, in test [1], the “Controlling effect on Pseudoperonospora cubensis by foliage application at 500 ppm (percent control)” value is listed as 100 percent control. Further, the “Controlling effect on PYricularia orYzae by foliage application at 500 ppm (percent control)” value in the test on Pyricularia oryzae was 90 percent control. Moreover, the “Controlling effect on ErYsiphe graminis f. sp. tritici by foliage application at 500 ppm (percent control)” value in test [2] is 70 percent control. The “Controlling effect on Sphaerotheca fuliginea by foliage application at 500 ppm (percent control)” value in the test with Sphaerotheca fuliginea is on record as 100 percent control.
Take `CON=C(c1nnco1)c1ccccc1COc1cc(Cl)ccc1Cl` [compound 731]: the “Controlling effect on Pseudoperonospora cubensis by foliage application at 500 ppm (percent control)” value in test [1] worked out at 100 percent control. Moreover, the “Controlling effect on PYricularia orYzae by foliage application at 500 ppm (percent control)” value in the test with Pyricularia oryzae was found to be 70 percent control. For the same molecule, the “Controlling effect on ErYsiphe graminis f. sp. tritici by foliage application at 500 ppm (percent control)” value in test [2] came to 70 percent control. In the test on Sphaerotheca fuliginea, the “Controlling effect on Sphaerotheca fuliginea by foliage application at 500 ppm (percent control)” value is on record as 100 percent control.
Turning to `CON=C(c1cc(C)no1)c1ccccc1COc1ncc(C(F)(F)F)cc1Cl` (single isomer, unassigned) [690A, 2-(3-chloro-5-trifluoromethyl-2-pyridyloxymethyl)phenyl 3-methylisoxazol-5-yl ketone O-methyloxime], in test [1], the “Controlling effect on Pseudoperonospora cubensis by foliage application at 500 ppm (percent control)” value was found to be 100 percent control. Besides, the “Controlling effect on PYricularia orYzae by foliage application at 500 ppm (percent control)” value in the test with Pyricularia oryzae came out at 97 percent control. Further, the pest or weed control at 500 ppm (in test [2]; in the test on Sphaerotheca fuliginea) was 100% in each case.
For the molecule `CON=C(c1ccon1)c1ccccc1COc1cccc(Cl)c1` (mixture of isomers) [compound 306], the “Controlling effect on Pseudoperonospora cubensis by foliage application at 500 ppm (percent control)” value in test [1] stood at 100 percent control. For the same molecule, the “Controlling effect on PYricularia orYzae by foliage application at 500 ppm (percent control)” value in the test on Pyricularia oryzae turned out to be 70 percent control. The “Controlling effect on ErYsiphe graminis f. sp. tritici by foliage application at 500 ppm (percent control)” value in test [2] is 70 percent control. Moreover, in the test with Sphaerotheca fuliginea, the “Controlling effect on Sphaerotheca fuliginea by foliage application at 500 ppm (percent control)” value came out at 97 percent control.
Regarding `CON=C(c1ccccc1CON=C(C)c1cccc(C(F)(F)F)c1)C1SCCN1C` (stereo not shown) [Compound No. 2839], in test [1], the “Controlling effect on Pseudoperonospora cubensis by foliage application at 500 ppm (percent control)” value stood at 95 percent control. Moreover, the “Controlling effect on PYricularia orYzae by foliage application at 500 ppm (percent control)” value in the test on Pyricularia oryzae was 90 percent control. Also, the “Controlling effect on ErYsiphe graminis f. sp. tritici by foliage application at 500 ppm (percent control)” value in test [2] was found to be 97 percent control. Also, in the test on Sphaerotheca fuliginea, the “Controlling effect on Sphaerotheca fuliginea by foliage application at 500 ppm (percent control)” value is 100 percent control.
In the same order, the values of `CON=C(c1ccno1)c1ccccc1COc1ccccc1C` (single isomer, unassigned) [512A] are 100 percent control, 90 percent control, 97 percent control and 100 percent control.
The matching figures for `CON=C(c1ccccc1COc1cc(Cl)ccc1Cl)c1nccn1C` (single isomer, unassigned) [131A]: 100 percent control, 90 percent control, 90 percent control and 100 percent control.
In the same order, the values of `CON=C(c1nnco1)c1ccccc1COc1cccc(Cl)c1` [compound 706] are 100 percent control, 70 percent control, 90 percent control and 100 percent control.

Values taken from patent US6362212B1, “Oxime derivative and bactericide containing the same as active ingredient” (Shionogi & Company, Ltd., priority 1994, dated 2002).
